According to patent US8501749B2, “Azaquinazolinediones chymase inhibitors” (Boehringer Ingelheim International GmbH, priority 2009, dated 2013):

Target: Chymase (Homo sapiens (Human), UniProt P23946)
Conditions: read-out: Chymase IC50; fluorogenic rhodamine 110 peptide substrate, 1 hour at 28° C., 1% DMSO

Sequence of Chymase (P23946 22-247): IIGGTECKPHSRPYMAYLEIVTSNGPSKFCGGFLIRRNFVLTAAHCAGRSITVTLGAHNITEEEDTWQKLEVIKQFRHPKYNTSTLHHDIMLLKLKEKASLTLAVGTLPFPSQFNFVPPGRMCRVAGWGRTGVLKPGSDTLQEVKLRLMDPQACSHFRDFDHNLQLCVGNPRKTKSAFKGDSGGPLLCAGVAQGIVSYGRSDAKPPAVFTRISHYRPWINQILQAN

Molecule `CC[C@H](CC(=O)O)n1c(=O)c2ncccc2n(Cc2cn(C)c3cc(C)cc(C)c23)c1=O` [(R)-3-[2,4-Dioxo-1-(1,4,6-trimethyl-1H-indol-3-ylmethyl)-1,4-dihydro-2H-pyrido[3,2-d]pyrimidin-3-yl]-pentanoic acid] has an IC50 of 0.4 nM.
